Measurements as given in PMC6523162 (Metabolites, 2019).
Values joined by “and” are separate entries in the source; they are usually repeats but may differ in a detail not shown here. Equal entries are not always repeated.

Assays:
[1] = PAMPA gut passive permeability; format: in vitro ADME; settings: for -log Pe: PAMPA gut, 4 h
Procedure: (§1) Parallel Artificial Membrane Permeability Assay was performed to analyze both blood–brain barrier (BBB) and gut passive permeability. All materials for PAMPA were purchased from Pion, Inc (Billerica, MA, USA). Both the gut and BBB assays were performed according to the manufacturer’s instructions. Briefly, test compounds and standards were prepared at 10 mM concentrations in DMSO. For the gut assay, Prisma HT buffer was adjusted to pHs 5, 6.2, and 7.4 by adding 0.5 M NaOH. In the deepwell plate provided by Pion, 1 mL of each pH-adjusted buffer was added to separate wells. For each pH, 5 µL of the sample was added to the 1 mL of buffer then mixed thoroughly with a pipette, diluting the sample to a final concentration of 50 µM. Next, 200 µl of the diluted sample was added to the donor (bottom) plate from the Pion sandwich assay, 5 µL of GIT lipid matrix was added to the membrane on the bottom of the acceptor plate, and 200 µL of acceptor sink buffer was added in each well of the acceptor plate. The sandwich was assembled, and the plate incubated at room temperature for 4 h undisturbed. In BBB assays, compounds (10 mM) were diluted to final concentrations of 50 µM in Prisma HT Buffer (pH = 7.4). The PAMPA sandwich was created with the donor (bottom), BBB artificial membrane, and brain sink buffer as the acceptor (top). The assay was performed for 1 h at room temperature with shaking (60 µm) using the manufacturer-supplied GIT Box. After incubation, the UV profiles of the donor and acceptor plates were read on the SpectraMax plate reader connected to the PAMPA software. PAMPA software calculated the –log Pe values for each compound and standard using the UV profiles of the donor and acceptor plates.

[2] = test system: nitric oxide production in LPS-stimulated BV-2 murine microglia; experiment: Nitric oxide quantification (Griess assay) in LPS-stimulated BV-2; format: cell-based; settings: for Mean Diff., LPS (1 μg/mL) vs. compound, NOS production: Tukey's multiple comparisons test; for nitric oxide concentration: 10 μM compound + LPS 1 μg/mL
Procedure: (§2) As previously published, BV-2 cells were seeded at a density of 100,000 cells/mL in 24-well plates. […] Media were collected, aliquoted for nitric oxide and cytokine analysis.
Nitric oxide was detected in BV-2 culture media following the stimulation of LPS for 24 h from the previously described experiment by way of the Griess Assay (Promega, Madison WI), according to the manufacturer’s protocol.

[3] = test system: TNF-α release from LPS-stimulated BV-2 murine microglia; experiment: TNF-α ELISA in LPS-stimulated BV-2 media; format: cell-based; settings: for Mean Diff., LPS (1 μg/mL) vs. compound, TNF-α: Tukey's multiple comparisons test; for effect on TNF-α production (in words): 20 μM and 10 μM, compared to LPS-induced treatment; for reduction of TNF-α compared to LPS: LPS 1 μg/mL
Procedure: as §2
(§3) IL-6 and TNF-α were measured from BV-2 media using Enzyme Linked Immunosorbent Assay (ELISA) provided by Biolegend (San Diego, CA, USA).

[4] = test system: IL-6 release from LPS-stimulated BV-2 murine microglia; experiment: IL-6 ELISA in LPS-stimulated BV-2 media; format: cell-based; settings: for Mean Diff., LPS (1 μg/mL) vs. compound, IL-6: Tukey's multiple comparisons test; for IL-6 concentration: 10 μM compound + LPS 1 μg/mL; for reduction of IL-6 production compared to LPS: LPS 1 μg/mL
Procedure: as §2, §3

[5] = test system: nitric oxide production in LPS-stimulated BV-2 murine microglia; experiment: Nitric oxide quantification (Griess assay) in LPS-stimulated BV-2; format: cell-based; settings: 1 h pre-treatment, LPS 1 μg/mL 23 h
[6] = PAMPA BBB passive permeability; format: in vitro ADME; settings: for PAMPA BBB permeability (in words): pH 7.4; for -log Pe: PAMPA BBB, pH 7.4, 50 µM, 1 h
Procedure: as §1

Molecule | PAMPA gut permeability (in words) ([1]; pH 5.0, 6.2 and 7.4) | Mean Diff., LPS (1 μg/mL) vs. compound, NOS production ([2]; 10 μM) | Mean Diff., LPS (1 μg/mL) vs. compound, NOS production ([2]; 20 μM) | Mean Diff., LPS (1 μg/mL) vs. compound, TNF-α ([3]; 10 μM) | Mean Diff., LPS (1 μg/mL) vs. compound, TNF-α ([3]; 20 μM) | Mean Diff., LPS (1 μg/mL) vs. compound, IL-6 ([4]; 10 μM) | Mean Diff., LPS (1 μg/mL) vs. compound, IL-6 ([4]; 20 μM) | reduction of nitric oxide compared to LPS alone ([5]; 20 μM) | PAMPA BBB permeability (in words) [6] | nitric oxide concentration [2] | TNF-α concentration ([3]; 10 μM compound + LPS 1 μg/mL) | reduction of TNF-α compared to LPS ([3]; 10 μM) | IL-6 concentration [4] | reduction of IL-6 production compared to LPS ([4]; 10 μM) | reduction of nitric oxide compared to LPS alone ([5]; 10 μM) | -log Pe [6] | other results
Cc1cc(=O)n(-c2ccccc2)n1C [Antipyrine, reference compound] | – | – | – | – | – | – | – | – | – | – | – | – | – | – | – | – | PAMPA gut permeability (in words) ([1]; pH 5): medium
O=c1c(-c2ccc(O)cc2)coc2cc(O)ccc12 [DAI, daidzein] | most permeable at pHs 5 and 6.2 | 4.129 | 9.223 | 57.91 | 70.55 | 17.26 | 20.68 | 24% | – | – | – | – | – | – | – | – | effect on TNF-α production (in words) [3]: similar, albeit less potent, protective abilities
OC[C@H](Cc1cccc(O)c1)[C@H](CO)Cc1cccc(O)c1 [ED, enterodiol] | lowest permeability of all test compounds | 4.354 | – | 2.638 | – | -24.9 | – | – | low permeability | 46.65 µM | 515.8 pg/mL | 0.5% | 690.6 pg/mL | approximately 3.74% | ~8.54% | – | –
O=C1OC[C@H](Cc2cccc(O)c2)[C@H]1Cc1cccc(O)c1 [EL, enterolactone] | – | 15.34 | – | 152.8 | – | 175.8 | – | – | high permeability | 35.67 µM | 365.6 pg/mL | 29.47% | 489.9 pg/mL | ~26.41% | ~30.07% | 3.97 ± 0.14 | -log Pe ([1]; pH 5, 50 µM): 4.27 ± 0.05; -log Pe ([1]; pH 6.2, 50 µM): 4.37 ± 0.02
Oc1ccc([C@H]2COc3cc(O)ccc3C2)cc1 [EQ, equol] | – | 6.216 | 8.47 | 57.03 | 72.78 | 10.39 | 19.48 | 22% | high permeability | – | – | – | – | – | – | 3.52 ± 0.20 | -log Pe ([1]; pH 5, 50 µM): 4.35 ± 0.11; -log Pe ([1]; pH 6.2, 50 µM): 4.20 ± 0.02; effect on TNF-α production (in words) [3]: similar, albeit less potent, protective abilities
O=c1c(-c2ccc(O)cc2)coc2cc(O)cc(O)c12 [GEN, genistein] | – | 14.41 | 26.17 | 113.8 | 199.8 | 35.15 | 83.38 | 68% | Intermediate BBB permeability | – | – | 16.6% | – | 34.0% | 38% | 4.26 ± 0.16 | reduction of TNF-α compared to LPS ([3]; 20 μM): 29.1%; reduction of IL-6 production compared to LPS ([4]; 20 μM): 80.4%
CC(C(=O)O)c1cccc(C(=O)c2ccccc2)c1 (stereo not drawn) [Ketoprofen, ketoprofen, reference compound] | variable permeability with pH change | – | – | – | – | – | – | – | – | – | – | – | – | – | – | – | –
CNC(=C[N+](=O)[O-])NCCSCc1ccc(CN(C)C)o1 [Ranitidine, ranitidine, reference compound] | low | – | – | – | – | – | – | – | – | – | – | – | – | – | – | – | –
COc1cc(C[C@@H](CO)[C@H](CO)Cc2ccc(O)c(OC)c2)ccc1O [SECO, secoisolariciresinol] | moderate permeability | 4.653 | – | 20.62 | – | -7.108 | – | – | low permeability | 46.35 µM | 497.8 pg/mL | 3.97% | 672.8 pg/mL | 1.05% | approximately 9.13% | – | –
lipopolysaccharide [LPS, reference compound] | – | – | – | – | – | – | – | – | – | – | – | – | – | – | – | – | nitric oxide species concentration ([2]; LPS 1 μg/mL alone): 41.5 ± 5.6 µM and 51.01 µM; TNF-α concentration ([3]; LPS 1 μg/mL alone): 687.7 ± 8.0 pg/mL and 518.4 pg/mL
